The text below walks through data of ChEMBL document CHEMBL2169738, “Rational design of a low molecular weight, stable, potent, and long-lasting GPR103 aza-β3-pseudopeptide agonist” (J Med Chem, 2012).

The term pEC50 denotes −log10 of the EC50, conventionally taken in molar units. As a reminder, the half-life is the time in which the quantity being followed falls by half. A high value points to slow decline. One may read the pIC50 as −log10 of the IC50, conventionally taken in molar units.

Each structure is given as a SMILES string. pEC50, pIC50: −log10 of the molar value. Activity calls are given as the source filed them. No cut-off for these calls is given here. Numbered stars: 1 amine (or outer) side, 2 acyl side, 3 side chain; on linkers, the order of the positions; unused ones are H or OH. Square brackets hold non-standard residues; d marks the D form. Peptide text beside a SMILES is read from it. * marks the point of attachment. Acetyl(2-(piperazin-1-yl)) = O=C(CN1CCNCC1)*; azaβ3hArg = N=C(N)NCCCN(CC(=O)[*:2])N[*:1]; Hydrazinoacetyl = O=C(CNN[*:1])[*:2]; X5 = O=C(CN(Cc1ccccc1)N[*:1])[*:2]; X9 = O=C(CN(CC1CCCCC1)N[*:1])[*:2]; X1 = O=C(CN(CC(O)CO)N[*:1])[*:2]; X3 = CCCCN(CC(=O)[*:2])N[*:1]; X4 = CCCN(CC(=O)[*:2])N[*:1]; X6 = O=C(CN(CCO)N[*:1])[*:2]; X2 = NC(=O)CN(Cc1ccccc1)N*; X8 = CN(CC(=O)[*:2])N[*:1]; X7 = O=C(CN1CCCN1)*

The target of data set [1] is T1, Pyroglutamylated RF-amide peptide receptor (Homo sapiens, UniProt Q96P65).
T1 sequence (Q96P65 whole entry): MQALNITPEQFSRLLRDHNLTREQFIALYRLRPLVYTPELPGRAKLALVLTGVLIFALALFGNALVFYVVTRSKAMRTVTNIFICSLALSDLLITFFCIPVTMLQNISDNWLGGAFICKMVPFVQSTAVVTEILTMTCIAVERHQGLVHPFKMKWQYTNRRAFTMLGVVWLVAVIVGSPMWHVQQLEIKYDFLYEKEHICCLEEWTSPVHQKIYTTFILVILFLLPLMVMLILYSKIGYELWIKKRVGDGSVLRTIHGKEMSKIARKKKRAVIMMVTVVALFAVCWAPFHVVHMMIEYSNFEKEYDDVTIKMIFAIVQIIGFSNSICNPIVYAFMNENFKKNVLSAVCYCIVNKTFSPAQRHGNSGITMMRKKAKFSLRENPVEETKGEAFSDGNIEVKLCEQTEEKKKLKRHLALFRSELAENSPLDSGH
Description: Agonist activity at human GPR103 expressed in CHO cells co-expressing Galpha16 assessed as increase in intracellular calcium level measured for 2 mins by fluorimetry. In kind it is functional, cell-based. (In general: Calcium assays in cells follow changes in intracellular calcium, usually with a dye or a luminescent sensor.)

Data set [2] concerns Mus musculus. Description: Orexigenic effect in icv dosed Swiss albino CD1 mouse measured after every 30 mins. It counts as functional, organism-based.
Data set [3] concerns Serum. Description: Compound degradation in human serum assessed as breakdown of N-terminal region incubated for 15 mins by RP-HPLC. In kind it is ADME, cell-free. The conditions noted are these: 0.25 h.
Data set [4] in a line: Half life in human serum by RP-HPLC. It counts as ADME, cell-free.
Data set [5] deals with Mus musculus. Briefly: Orexigenic effect in Swiss albino CD1 mouse at 1.2 nmol, icv measured after every 30 mins for 90 to 120 mins. It counts as functional, organism-based.
The test system of data set [6] is Serum. Description: Ratio of t1/2 of compound to t1/2 of 26RFa in human serum by RP-HPLC. In kind it is ADME, cell-free.
Data set [7] addresses T1, Pyroglutamylated RF-amide peptide receptor. Briefly: Displacement of [125I]26RFa from human GPR103 expressed in HEK293 cells incubated for 1 h by gamma counter based method. In kind it is cell-based. (In general: Displacement assays read how much labelled ligand stays bound in the presence of the test substance.)
Data set [8] concerns Serum. Description: Compound degradation in human serum assessed as breakdown of N-terminal region incubated for 2 mins by RP-HPLC. In kind it is ADME, cell-free.
Data set [9] concerns Mus musculus. Briefly: Orexigenic effect in icv dosed Swiss albino CD1 mouse assessed as cumulative food intake measured after 2 hrs. In kind it is functional.
The target in data set [10] is T1, Pyroglutamylated RF-amide peptide receptor. Description: Antagonist activity at human GPR103 expressed in CHO cells co-expressing Galpha16 assessed as inhibition of human 26RFa-induced increase in intracellular calcium level by fluorimetry. In kind it is functional, cell-based.
The subject of data set [11] is Mus musculus. Briefly: Orexigenic effect in Swiss albino CD1 mouse at 0.012 to 1.2 nmol, icv after 30 mins. In kind it is functional, organism-based.
Data set [12] deals with Mus musculus. Briefly: Orexigenic effect in Swiss albino CD1 mouse at 0.012 to 1.2 nmol, icv measured for 30 mins. It counts as functional, organism-based.
The test system of data set [13] is Mus musculus. Description: Orexigenic effect in Swiss albino CD1 mouse at 1.2 nmol, icv measured after every 30 mins for 60 to 90 mins. In kind it is functional, organism-based.

For the compound `NCC(=O)NCC(=O)NN(CC(=O)N[C@@H](CO)C(=O)N[C@@H](Cc1ccccc1)C(=O)N[C@@H](CCCN=C(N)N)C(=O)N[C@@H](Cc1ccccc1)C(N)=O)Cc1ccccc1` (H-GG[X5]SFRF-NH2), the pEC50 in data set [1] is 5.63.
For `N=C(N)NCCC[C@H](NC(=O)[C@H](Cc1ccccc1)NC(=O)CN(CC(O)CO)NC(=O)[C@H](Cc1ccccc1)NC(=O)CN1CCNCC1)C(=O)N[C@@H](Cc1ccccc1)C(N)=O` (some centres not stated) ({Acetyl(2-(piperazin-1-yl))}-F[X1]FRF-NH2), the values for the Activity entry in the data set with Mus musculus [2] and in the data set with Mus musculus [9] were “Dose-dependent effect” and 1873 mg, respectively. Also, the pEC50 in data set [1] is 7.03. The Stability entry with Serum [3] and in the data set with Serum [8] was “Stable” in each case. The compound also gave a half-life in data set [4] of 35.6 min. Besides, the result in the data set on Mus musculus [5] was Active. Further, in the data set on Serum [6], the Ratio was found to be 5. In data set [7], this compound had a negative-log IC50 (pIC50) of 5.70.
Take `CCCN(CC(=O)N[C@@H](Cc1ccccc1)C(=O)N[C@@H](CCCN=C(N)N)C(=O)N[C@@H](Cc1ccccc1)C(N)=O)NC(=O)[C@H](Cc1ccccc1)NC(=O)CNC(=O)CN` (H-GGF[X4]FRF-NH2): in data set [1], the negative-log EC50 (pEC50) is less than 5.00. Also, in data set [10], the pIC50 is less than 5.00.
Consider `NCC(=O)NCC(=O)N[C@@H](Cc1ccccc1)C(=O)NN(CC(=O)N[C@@H](Cc1ccccc1)C(=O)N[C@@H](CCCN=C(N)N)C(=O)N[C@@H](Cc1ccccc1)C(N)=O)CC(O)CO` (some centres not stated) (H-GGF[X1]FRF-NH2), for which, in data set [1], the pEC50 was 6.47.
On to `N=C(N)NCCC[C@H](NC(=O)[C@H](Cc1ccccc1)NC(=O)CN(CC(O)CO)NC(=O)[C@H](Cc1ccccc1)NC(=O)CN1CCCN1)C(=O)N[C@@H](Cc1ccccc1)C(N)=O` (some centres not stated) (X7-F[X1]FRF-NH2), for which, in data set [1], the pEC50 was 6.42.
For `CN(CC(=O)N[C@@H](Cc1ccccc1)C(=O)N[C@@H](CCCN=C(N)N)C(=O)N[C@@H](Cc1ccccc1)C(N)=O)NC(=O)[C@H](Cc1ccccc1)NC(=O)CNC(=O)CN` (H-GGF[X8]FRF-NH2), the pEC50 in data set [1] was 5.96.
Still for that read-out and setting: as for `NC(=O)[C@H](Cc1ccccc1)NC(=O)[C@H](CCCN=C(N)N)NC(=O)[C@H](Cc1ccccc1)NC(=O)[C@H](CO)NC(=O)[C@H](Cc1ccccc1)NC(=O)CN1CCNCC1` ({Acetyl(2-(piperazin-1-yl))}-FSFRF-NH2), the figure is 6.86.
In the case of `NCC(=O)NCC(=O)N[C@@H](Cc1ccccc1)C(=O)N[C@@H](CO)C(=O)NN(CC(=O)N[C@@H](CCCN=C(N)N)C(=O)N[C@@H](Cc1ccccc1)C(N)=O)Cc1ccccc1` (H-GGFS[X5]RF-NH2), in [1], the pEC50 is less than 5.00. Further, the pIC50 in [10] was less than 5.00.
The compound `CC(C)C[C@H](NC(=O)[C@H](CC(N)=O)NC(=O)CNC(=O)[C@H](CC(C)C)NC(=O)[C@@H]1CCCN1C(=O)CNC(=O)[C@H](CO)NC(=O)[C@@H](N)[C@@H](C)O)C(=O)N[C@@H](C)C(=O)N[C@@H](CCC(=O)O)C(=O)N[C@@H](CCC(=O)O)C(=O)N[C@@H](CC(C)C)C(=O)N[C@@H](CC(N)=O)C(=O)NCC(=O)N[C@@H](Cc1ccc(O)cc1)C(=O)N[C@@H](CO)C(=O)N[C@@H](CCCNC(=N)N)C(=O)N[C@@H](CCCCN)C(=O)N[C@@H](CCCCN)C(=O)NCC(=O)NCC(=O)N[C@@H](Cc1ccccc1)C(=O)N[C@@H](CO)C(=O)N[C@@H](Cc1ccccc1)C(=O)N[C@@H](CCCNC(=N)N)C(=O)N[C@@H](Cc1ccccc1)C(N)=O` (H-TSGPLGNLAEELNGYSRKKGGFSFRF-NH2) gave a half-life in data set [4] of 6.9 min. For the same compound, in data set [7], the pIC50 was 8.90.
On to `N=C(N)NCCC[C@H](NC(=O)[C@H](Cc1ccccc1)NC(=O)[C@H](CO)NC(=O)[C@H](Cc1ccccc1)NC(=O)CNC(=O)CNN)C(=O)N[C@@H](Cc1ccccc1)C(N)=O` (Hydrazinoacetyl-GFSFRF-NH2), for which the pEC50 in data set [1] is 6.37.
As for `N=C(N)NCCC[C@H](NC(=O)[C@H](Cc1ccccc1)NC(=O)CN(CCO)NC(=O)[C@H](Cc1ccccc1)NC(=O)CNC(=O)CN)C(=O)N[C@@H](Cc1ccccc1)C(N)=O` (H-GGF[X6]FRF-NH2), the negative logarithm of the EC50 (pEC50) in data set [1] was 5.96.
As for `N=C(N)NCCC[C@H](NC(=O)[C@H](Cc1ccccc1)NC(=O)[C@H](CO)NC(=O)[C@H](Cc1ccccc1)NC(=O)CNC(=O)CN)C(=O)N[C@@H](Cc1ccccc1)C(N)=O` (H-GGFSFRF-NH2), the result in the data set on Mus musculus [11] was inactive. Also, the outcome in the data set with Mus musculus [12] and with Mus musculus [13] was Active. This compound showed a half-life in data set [4] of 11.2 min. Further, the negative-log IC50 (pIC50) in data set [7] was 5.06. For the same compound, the Activity with Mus musculus [9] was found to be 1833 mg.
Take `CCCN(CC(=O)N[C@@H](Cc1ccccc1)C(=O)N[C@@H](CCCNC(=N)N)C(=O)N[C@@H](Cc1ccccc1)C(N)=O)NC(=O)[C@H](Cc1ccccc1)NC(=O)CN1CCNCC1` ({Acetyl(2-(piperazin-1-yl))}-F[X4]FRF-NH2): the pEC50 in data set [1] is 6.79.
In the case of `NCC(=O)NCC(=O)N[C@@H](Cc1ccccc1)C(=O)N[C@@H](CO)C(=O)N[C@@H](Cc1ccccc1)C(=O)NN(CCCN=C(N)N)CC(=O)N[C@@H](Cc1ccccc1)C(N)=O` (H-GGFSF[azaβ3hArg]F-NH2), the pEC50 in [1] was less than 5.00. Further, the pIC50 in data set [10] was less than 5.00.
As for `NCC(=O)NCC(=O)N[C@@H](Cc1ccccc1)C(=O)N[C@@H](CO)C(=O)N[C@@H](Cc1ccccc1)C(=O)N[C@@H](CCCN=C(N)N)C(=O)NN(CC(N)=O)Cc1ccccc1` (H-GGFSFR-X2), in data set [1], the negative-log EC50 (pEC50) was less than 5.00. For the same compound, the pIC50 in data set [10] is less than 5.00.
Regarding `NCC(=O)NCC(=O)N[C@@H](Cc1ccccc1)C(=O)NN(CC(=O)N[C@@H](Cc1ccccc1)C(=O)N[C@@H](CCCN=C(N)N)C(=O)N[C@@H](Cc1ccccc1)C(N)=O)CC1CCCCC1` (H-GGF[X9]FRF-NH2), the negative-log EC50 (pEC50) in data set [1] is 5.86.
Consider `CCCCN(CC(=O)N[C@@H](Cc1ccccc1)C(=O)N[C@@H](CCCNC(=N)N)C(=O)N[C@@H](Cc1ccccc1)C(N)=O)NC(=O)[C@H](Cc1ccccc1)NC(=O)CNC(=O)CN` (H-GGF[X3]FRF-NH2), for which the pEC50 in [1] was 4.53.
Regarding `N=C(N)NCCC[C@H](NC(=O)[C@H](Cc1ccccc1)NC(=O)[C@H](CO)NC(=O)[C@H](Cc1ccccc1)NC(=O)CNNC(=O)CN)C(=O)N[C@@H](Cc1ccccc1)C(N)=O` (H-G[Hydrazinoacetyl]FSFRF-NH2), the negative-log EC50 (pEC50) in data set [1] is 6.87. In addition, the pIC50 in [7] is 5.52.
